# Measured values published in article PMC9177545, “3-oxo-C12:2-HSL, quorum sensing molecule from human intestinal microbiota, inhibits pro-inflammatory pathways in immune cells via bitter taste receptors” (Scientific Reports, 2022).
# Molecular target: T1, TAS2R138 (Mus musculus, UniProt Q7TQA6)
# T1 construct: endogenous in cells; host or cells: RAW264.7 murine macrophages (ATCC)
# T1 sequence (Q7TQA6 1-331): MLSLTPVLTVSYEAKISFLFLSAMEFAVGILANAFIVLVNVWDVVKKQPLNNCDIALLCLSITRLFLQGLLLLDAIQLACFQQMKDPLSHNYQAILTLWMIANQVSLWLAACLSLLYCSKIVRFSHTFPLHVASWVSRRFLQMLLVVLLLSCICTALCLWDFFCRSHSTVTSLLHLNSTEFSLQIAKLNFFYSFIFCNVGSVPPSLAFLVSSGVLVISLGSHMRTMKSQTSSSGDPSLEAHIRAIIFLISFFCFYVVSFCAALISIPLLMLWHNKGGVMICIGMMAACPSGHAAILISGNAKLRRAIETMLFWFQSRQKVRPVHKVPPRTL
# Experiment: TAS2R38/TAS2R138 inhibition experiment: TNFα secretion of RAW264.7 cells pre-treated with probenecid
# Assay type: cell-based
# Settings: 1 mM probenecid, one hour before LPS and IFNγ, six hours
# Description: In RAW264.7 cells, inflammation was triggered with LPS (10 ng/mL, Sigma) and IFNγ (10 U/mL, R&Dsystems) for 2 h or 6 h, depending on the experiments. PBMC were exposed to LPS (10 ng/mL) and AHL for 24 h. For TAS2R38 inhibition experiments, cells were exposed to TAS2R38 allosteric inhibitor probenecid (1 mM, Sigma) for one hour before adding AHLs and the inflammatory cocktail, without changing the media.
# At the end of cell treatment, the medium was centrifuged at 300g for 5 min at 4 °C. Supernatant was frozen at − 80 °C until ELISA assays. TNFα and IL-1β ELISA kits were purchased from R&D systems and performed according to the manufacturer’s instructions. Briefly, plates were coated with a capture antibody and incubated overnight. Wells were blocked using 1% bovine serum albumin-PBS solution (Sigma), then exposed to cell supernatants at room temperature for two hours. Wells were washed and incubated with the detection antibody for an additional two hours. After thorough washing, Streptavidin-HRP solution was added for 20 min. Wells were washed, then incubated with TMB (Biolegend) solution for 20 min and the reaction was stopped using 1 M H2SO4. Absorbance was measured by a spectrometer (FLUOstar Omega; BMG Labtech) at 450 nm and the absorbance at 540 nm was subtracted.
structure (smiles),measurement,value
"CCCN(CCC)S(=O)(=O)c1ccc(C(=O)O)cc1 [probenecid, reference compound]",effect on TNFα secretion in activated cells cultured in absence of 3-oxo-C12:2-HSL,no effect
